Experimental data from publication PMC8998618, “A Pharmacokinetic and Metabolism Study of the TRPC6 Inhibitor SH045 in Mice by LC-MS/MS” (International Journal of Molecular Sciences, 2022).
Where two headings read alike, the source gives them in different places.

Legend:
[1] = tissue homogenate binding by ultrafiltration; format: in vitro ADME, mice; conditions: mean ± RSD
[2] = plasma pharmacokinetics after single i.v. and p.o. administration, NCA; format: in vivo, mice; conditions: for increase in AUCinf with 10-fold dosing / increase in cmax with 10-fold dosing: 20 vs 2 mg/kg BW; for Cmax / Tmax / AUC(0-inf) / AUC(0-t) / MRT / half-life / bioavailability / CL/F / Vd/F / AUCextra / Vz/F: plasma; for bioavailability: from AUCinf, read-out: oral bioavailability (F); for Vd/F: read-out: Vz/F
Protocol: Analysis of SH045 in samples from plasma, tissue, urine, and microsomal incubations was performed as previously described. Details are described in Supplementary Materials SM2.
Male C57BL/6 mice (25–30 g BW, Charles River, Sulzfeld, Germany) housed in groups under standard conditions and allowed access to lab chow and water ad libitum were used. The in vivo experiments were performed according to the national regulations of animal welfare and were ethically approved by the local committee on animal welfare and the local authorities. Animal experiments were performed under strict consideration of the 3R principles, fully complying with the ARRIVE guidelines. For single SH045 administration mice were assigned to four groups of 12 animals each: 2 and 20 mg/kg BW applied via the i.v. and the p.o. route, respectively. Due to the recommended limited volume for blood collection, each mouse was assigned to a maximum of five different time points each out of 8 (for p.o.) and 9 (for i.v.) for blood collection resulting in six independent plasma concentration values per time point.
SH045 was freshly prepared with DMSO (final concentration 0.5%) and Kolliphor® EL (5% in water). At 7:00 a.m., one hour before drug administration, food was removed. For oral gavage and for i.v. administration into the tail vein the respective dose was applied in a volume of 3 mL/kg BW.
Via heparin-coated catheters a maximum of 50 µL blood was collected from the tail vein at 0.25, 0.5, 1, 2, 3, 4, 6, 8, or 24 h after administration and immediately centrifuged at 4000× g at 4 °C for 10 min. For repeated administration 20 mg/kg BW SH045 were administered at 8:00 a.m. on five consecutive days, once a day. Blood was taken 1 h and 24 h after drug administration. Tissue samples were harvested from isoflurane-euthanized animals at indicated time points. Mice were transcardially perfused with PBS and dissected tissues were washed to remove remaining blood. Plasma and tissue samples were stored at −80 °C until analysis. Urine was collected by bladder puncture at indicated time points.
Pharmacokinetics parameters for SH045 were determined based on non-compartmental model analysis (NCA) using the Phoenix WinNonlin Software 8.3 (Certara, Princeton, NJ, USA). The slope of the terminal phase of the SH045 concentration-time profile (λz) was estimated as absolute values from ≥3 data points using a log-linear regression analysis. The area under the concentration-time curve (AUC) for the time (t) providing the final measurable concentration (AUClast) was calculated using the mixed log-linear trapezoidal rule (linear up, log down). The AUCinf was computed as AUClast + Clast/λz, where the estimated value of the latest data point is used. The systemic total body clearance from plasma (CLp) was calculated as applied dose divided by AUCinf. MRT was calculated as AUMCinf/AUCinf, where area under the first moment curve (AUMC) was defined as area under the curve of the product of time and the plasma drug concentration versus time from zero to infinity. Finally, the AUCextra extrapolates the AUC from the last measured time point to infinity. Vz, the apparent volume of distribution during terminal elimination phase was calculated by Vz = Dose/AUCinf × λz, where λz is the plasma elimination rate constant. The apparent volume of distribution during the terminal phase following extravascular administration based on the fraction of dose absorbed Vz/F = Dose/(AUCinf × λz). The bioavailability (F) of two oral doses SH045 doses were calculated with reference to identical doses administered by intravenous bolus application of SH045 as follows: F = AUCoral/AUCi.v. Tissue binding of SH045 was analyzed exemplarily in lung, liver and kidney homogenate using ultrafiltration. The concentration in the filtrate refers to the unbound SH045 concentration according to tissue binding (%) = (ctot − cfiltrate)/ctotal × 100. For details see Supplementary Materials SM5.

[3] = male, C57BL/6, mouse, iv, mice, single 2.0 mg/kg BW i.v.
[4] = male, C57BL/6, mouse, iv, mice, single 2.0 mg/kg BW i.v., NCA
[5] = male, C57BL/6, mouse, iv, mice, single 20 mg/kg BW i.v.
[6] = male, C57BL/6, mouse, iv, mice, single 20 mg/kg BW i.v., NCA
[7] = male, C57BL/6, mouse, po, mice, single 2.0 mg/kg BW p.o.
[8] = male, C57BL/6, mouse, po, mice, single 2.0 mg/kg BW p.o., NCA
[9] = male, C57BL/6, mouse, po, mice, single 20 mg/kg BW p.o.
[10] = male, C57BL/6, mouse, po, mice, single 20 mg/kg BW p.o., NCA
[11] = mice, single 2.0 mg/kg BW i.v., NCA
[12] = mice, single 20 mg/kg BW i.v., NCA

## C=C[C@@](C)(O)CC[C@H]1C(=C)C[C@H](OC(=O)NC)[C@H]2C(C)(C)CCC[C@]12C [SH045, (1S,4S,4aR,8aS)-4-((S)-3-Hydroxy-3-methylpent-4-en-1-yl)-4a,8,8-trimethyl-3-methylenedecahydronaphthalen-1-yl methylcarbamate]
[1]; kidney homogenate 1:10, SH045 1 µg/mL, 30 min
  Tissue binding: 97.6 ± 0.9%
[1]; kidney homogenate 1:10, SH045 1 µg/mL, 60 min
  Tissue binding: 97.8 ± 0.4%
[1]; kidney homogenate 1:10, SH045 1 µg/mL, 120 min
  Tissue binding: 98.3 ± 0.2%
[1]; kidney homogenate 1:10, SH045 1 µg/mL, 240 min
  Tissue binding: 98.3 ± 0.1%
[1]; liver homogenate 1:10, SH045 2 µg/mL, 30 min
  Tissue binding: 99.4 ± 0.1%
[1]; liver homogenate 1:10, SH045 2 µg/mL, 60 min
  Tissue binding: 97.1 ± 1.0%
[1]; liver homogenate 1:10, SH045 2 µg/mL, 120 min
  Tissue binding: 99.0 ± 0.1%
[1]; liver homogenate 1:10, SH045 2 µg/mL, 240 min
  Tissue binding: 97.8 ± 0.9%
[1]; lung homogenate 1:10, SH045 50 µg/mL, 30 min
  Tissue binding: 93.5 ± 1.2%
[1]; lung homogenate 1:10, SH045 50 µg/mL, 60 min
  Tissue binding: 94.9 ± 0.1%
[1]; lung homogenate 1:10, SH045 50 µg/mL, 120 min
  Tissue binding: 97.8 ± 0.5%
[1]; lung homogenate 1:10, SH045 50 µg/mL, 240 min
  Tissue binding: 97.4 ± 0.8%
[2]; 2 mg/kg p.o.
  total body clearance following oral administration with regard to oral bioavailability: 95 mL/min/kg
[2]; 20 mg/kg BW i.v.
  time up to which SH045 is measurable in plasma: up to 24 h
[2]; 20 mg/kg BW i.v., corresponding to urine period 10–30 min
  corresponding drug plasma concentration: 3035 nM
[2]; 20 mg/kg BW i.v., corresponding to urine period 60–80 min
  corresponding drug plasma concentration: 1655 nM
[2]; 20 mg/kg BW i.v., corresponding to urine period 100–120 min
  corresponding drug plasma concentration: 560 nM
[2]; 20 mg/kg i.v. five times once a day, 1 and 24 h after the last injection
  accumulation of SH045 in plasma after repeated administration: no accumulation
[2]; 20 mg/kg i.v., NCA
  AUCextra percentage, simulated recalculation including late low concentration values: 0.8%
[2]; 20 mg/kg p.o.
  total body clearance following oral administration with regard to oral bioavailability: 117 mL/min/kg
[2]; i.v.
  increase in AUCinf with 10-fold dosing: 8.1 fold
  increase in cmax with 10-fold dosing: 6.5 fold
[2]; [3]
  Cmax: 369 ng/mL
  Tmax: 0.25 h
[2]; [4]
  AUC(0-inf): 351 ng·h/mL
  AUC(0-t): 338 ng·h/mL
  MRT: 0.75 h
[2]; male, C57BL/6, mouse, iv, mice, single 2.0 mg/kg BW i.v., NCA, read-out: t1/2 (converted)
  half-life: 1.28 h
[2]; [5]
  Cmax: 2390 ng/mL
  Tmax: 0.25 h
[2]; [6]
  AUC(0-inf): 2840 ng·h/mL
  AUC(0-t): 2720 ng·h/mL
  MRT: 1.52 h
[2]; male, C57BL/6, mouse, iv, mice, single 20 mg/kg BW i.v., NCA, read-out: t1/2 (converted)
  half-life: 2.37 h
[2]; male, C57BL/6, mouse, intravenous, oral, range over both doses and routes, read-out: mean half-life (t1/2)
  half-life: 1.2 to 2.4 h
[2]; male, C57BL/6, mouse, po, 2 mg/kg p.o.
  bioavailability: 24%
[2]; male, C57BL/6, mouse, po, 20 mg/kg p.o.
  bioavailability: 11%
[2]; [7]
  Cmax: 68.3 ng/mL
  Tmax: 0.5 h
[2]; [8]
  AUC(0-inf): 84.2 ng·h/mL
  AUC(0-t): 69 ng·h/mL
  MRT: 1.78 h
  Vd/F: 39.5 L/kg
[2]; male, C57BL/6, mouse, po, mice, single 2.0 mg/kg BW p.o., NCA, read-out: CL/F
  CL/F: 396 mL/min/kg
[2]; male, C57BL/6, mouse, po, mice, single 2.0 mg/kg BW p.o., NCA, read-out: t1/2 (converted)
  half-life: 1.15 h
[2]; [9]
  Cmax: 341 ng/mL
  Tmax: 0.5 h
[2]; [10]
  AUC(0-inf): 314 ng·h/mL
  AUC(0-t): 298 ng·h/mL
  MRT: 1.68 h
  Vd/F: 171 L/kg
[2]; male, C57BL/6, mouse, po, mice, single 20 mg/kg BW p.o., NCA, read-out: CL/F
  CL/F: 1060 mL/min/kg
[2]; male, C57BL/6, mouse, po, mice, single 20 mg/kg BW p.o., NCA, read-out: t1/2 (converted)
  half-life: 1.86 h
[2]; [11]
  AUCextra: 3.7%
  CL/F: 94.9 mL/min/kg
  Vz/F: 10.5 L/kg
[2]; mice, single 2.0 mg/kg BW p.o., NCA
  AUCextra: 17.5%
[2]; [12]
  AUCextra: 4.2%
  CL/F: 117.2 mL/min/kg
  Vz/F: 24.0 L/kg
[2]; mice, single 20 mg/kg BW p.o., NCA
  AUCextra: 5.0%
[2]; mice, single 2.0 mg/kg BW i.v. (reference route)
  F: 1.0
[2]; mice, single 2.0 mg/kg BW p.o., F = AUCoral/AUCi.v.
  F: 0.24
[2]; mice, single 20 mg/kg BW i.v. (reference route)
  F: 1.0
[2]; mice, single 20 mg/kg BW p.o., F = AUCoral/AUCi.v.
  F: 0.11
[2]; oral
  increase in AUCinf with 10-fold dosing: 3.7 fold
  increase in cmax with 10-fold dosing: 5.0 fold
[2]; orally
  time up to which SH045 is measurable in plasma: up to 6 h
